In publication PMC12621043, “Un-LOK-ing a New Approach for Conformational Selective Targeting of STK10 (LOK)” (ACS Medicinal Chemistry Letters, 2025):
Values joined by “and” are separate entries in the source; they are usually repeats but may differ in a detail not shown here. Identical values can stand only once. Like-named read-outs stand apart in the source and are kept apart here.

Columns and labels:
STK10 [1] = biological target: T1, STK10 (Homo sapiens, UniProt O94804); test: Surface plasmon resonance (SPR); type: binding; details: 1:1 Langmuir kinetic model, 25 °C
T1 construct: purchased in-house DSF kinase panel (SGC-style construct names; the trailing letter is the construct ID)
Protocol: each well using a multichannel pipette (Eppendorf). Plates were incubated at 37 °C for 1 hour.
For substrate addition, 5 μL of 8 μM AQT0505 peptide was added to each well using the Mantis […]
temperature for an additional hour.
Fluorescence of the SOX-peptide was measured after excitation at 360 nm and emission at 487 nm using a PHERAstar plate reader (BMG Labtech). IC50 values were calculated by nonlinear regression of log[inhibitor] versus normalized response using GraphPad Prism 8 (www.graphpad.com, RRID:SCR_002798).
SPR. Surface plasmon resonance (SPR) experiments were conducted using a Biacore T200 instrument equipped with a Series S Sensor Chip NTA (Cytiva) at 25 °C. His-STK10 was immobilized at a flow rate of 10 µL/min on flow channels (FC) 2 while FC1 served as a blank reference without protein. Nickel loading of the chip was achieved by injecting 500 µM NiCl₂.
To activate the chip surface for covalent coupling, 483 mM EDC and 10 mM NHS were mixed in a 1:1 (v/v) ratio and injected. […]
Compound 23 was measured in duplicates using Multi-Cycle Kinetics, with 10 concentrations ranging from 0.01 µM to 5 μM injected across FC1 and FC2 at 30 µL/min for 150 s. Interaction data was FC1-referenced, blank-subtracted, solvent-corrected, and analyzed using Biacore T200 Evaluation Software version 3.2.1. […]

SLK [2] = biological target: SLK (Homo sapiens, UniProt Q9H2G2); test: Surface plasmon resonance (SPR); type: binding; details: kinetic fit, Figure S3
EPHA4A = biological target: T2, EPHA4A (Homo sapiens, UniProt P54764); test: DSF Tm panel; type: binding; details: 10 μM compound
T2 construct: purchased in-house DSF kinase panel (SGC-style construct names; the trailing letter is the construct ID)
T2 sequence (P54764 621-882): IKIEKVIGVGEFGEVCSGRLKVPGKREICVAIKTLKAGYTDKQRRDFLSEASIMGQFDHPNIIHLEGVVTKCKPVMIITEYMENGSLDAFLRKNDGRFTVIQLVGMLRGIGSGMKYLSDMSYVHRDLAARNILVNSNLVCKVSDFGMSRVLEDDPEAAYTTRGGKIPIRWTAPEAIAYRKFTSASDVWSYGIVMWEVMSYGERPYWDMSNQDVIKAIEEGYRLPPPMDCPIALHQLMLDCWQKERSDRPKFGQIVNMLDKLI

FECHHSB = biological target: T3, FECHHSB (Homo sapiens, UniProt P22830); test: DSF Tm panel; type: binding; details: 10 μM compound
T3 construct: purchased in-house DSF kinase panel (SGC-style construct names; the trailing letter is the construct ID)

STK10 [3] = biological target: T1, STK10; details: Figure 1, previous published dual STK10/SLK inhibitors, ref Serafim et al.; read-out: STK10 cellular IC50; cited from earlier work
SLK [4] = test system: SLK; parameters: method as in Serafim et al.; details: Figure 1, previous published dual STK10/SLK inhibitors, ref Serafim et al.; read-out: SLK cellular IC50; cited from earlier work
STK10 [5] = biological target: T1, STK10; details: Figure 1, previous published dual STK10/SLK inhibitors, ref Serafim et al.; read-out: STK10 in vitro IC50; cited from earlier work

T1 sequence (O94804 18-317 limits assumed): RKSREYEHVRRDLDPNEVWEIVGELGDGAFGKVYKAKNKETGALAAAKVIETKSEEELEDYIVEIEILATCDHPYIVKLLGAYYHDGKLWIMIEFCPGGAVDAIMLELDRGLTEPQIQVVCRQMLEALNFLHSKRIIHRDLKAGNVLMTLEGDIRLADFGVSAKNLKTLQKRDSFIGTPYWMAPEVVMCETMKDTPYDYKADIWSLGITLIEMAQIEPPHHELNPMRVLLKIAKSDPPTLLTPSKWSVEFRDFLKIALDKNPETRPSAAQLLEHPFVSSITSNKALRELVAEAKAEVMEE
T3 sequence (P22830 55-423): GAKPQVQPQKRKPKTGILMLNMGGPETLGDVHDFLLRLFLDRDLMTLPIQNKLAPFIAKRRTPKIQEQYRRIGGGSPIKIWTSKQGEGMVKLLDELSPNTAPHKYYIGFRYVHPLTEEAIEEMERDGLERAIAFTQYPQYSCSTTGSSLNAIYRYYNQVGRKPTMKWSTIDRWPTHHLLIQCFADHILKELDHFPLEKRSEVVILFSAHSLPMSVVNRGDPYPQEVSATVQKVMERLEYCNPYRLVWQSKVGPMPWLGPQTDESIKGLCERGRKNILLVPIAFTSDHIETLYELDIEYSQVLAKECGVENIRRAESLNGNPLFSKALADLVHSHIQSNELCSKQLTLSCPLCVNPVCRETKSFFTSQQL

| SMILES | ΔTm at 10 µM (EPHA4A) | other results |
| --- | --- | --- |
| Cc1cc(Cl)ccc1CNC(=O)Nc1ccc2cc1OCCOCCNc1ccn3ncc-2c3n1 [compound 23] | – | Kd (STK10 [1]): 365 ± 45 nM; Kd (SLK [2]): 985 ± 855 nM; Kd SLK (SPR) (SLK [2]): mainly nonspecific binding |
| Cc1cc(Br)ccc1CNC(=O)Nc1ccc2cc1OCCOCCNc1ccn3ncc-2c3n1 [compound 24] | 0.2 °C | – |
| Cc1ccc(F)cc1CNC(=O)Nc1ccc2cc1OCCOCCNc1ccn3ncc-2c3n1 [compound 26] | 0.3 °C | – |
| O=C(NCc1ccccc1C(F)(F)F)Nc1ccc2cc1OCCOCCNc1ccn3ncc-2c3n1 [compound 27] | 0.3 °C | – |
| O=C(NCc1ccc(C(F)(F)F)cc1)Nc1ccc2cc1OCCOCCNc1ccn3ncc-2c3n1 [compound 28] | 0.5 °C | – |
| COc1ccccc1CNC(=O)Nc1ccc2cc1OCCOCCNc1ccn3ncc-2c3n1 [compound 29] | 0.3 °C | ΔTm at 10 µM (FECHHSB): -3.1 °C |
| COc1cccc(CNC(=O)Nc2ccc3cc2OCCOCCNc2ccn4ncc-3c4n2)c1 [compound 30] | 0.3 °C | ΔTm at 10 µM (FECHHSB): -3.8 °C |
| COc1ccc(CNC(=O)Nc2ccc3cc2OCCOCCNc2ccn4ncc-3c4n2)cc1 [compound 31] | 0.4 °C | IC50 (STK10 [3]): > 1000 nM and 1400 nM; IC50 (SLK [4]): 700 nM; IC50 (STK10 [5]): 12 nM |
| COc1ccc(CNC(=O)Nc2ccc3cc2OCCOCCNc2ccn4ncc-3c4n2)cc1F [compound 32] | 0.4 °C | – |
| COc1cc(CNC(=O)Nc2ccc3cc2OCCOCCNc2ccn4ncc-3c4n2)ccc1F [compound 33] | 0.4 °C | – |
| C[C@H](NC(=O)Nc1ccc2cc1OCCOCCNc1ccn3ncc-2c3n1)c1ccccc1 [compound 34] | 0.3 °C | – |
